Test results taken from ChEMBL document CHEMBL3627677, “Novel 2H-chromen-2-one derivatives of resveratrol: Design, synthesis, modeling and use as human monoamine oxidase inhibitors” (Eur J Med Chem, 2015).

Assays:
[1] = target: T1, Amine oxidase [flavin-containing] A (Homo sapiens, UniProt P21397); assay: Inhibition of recombinant human MAOA using p-tyramine as substrate assessed as H2O2 production preincubated for 15 mins followed by substrate addition by fluorometric analysis
T1 sequence (P21397 whole entry): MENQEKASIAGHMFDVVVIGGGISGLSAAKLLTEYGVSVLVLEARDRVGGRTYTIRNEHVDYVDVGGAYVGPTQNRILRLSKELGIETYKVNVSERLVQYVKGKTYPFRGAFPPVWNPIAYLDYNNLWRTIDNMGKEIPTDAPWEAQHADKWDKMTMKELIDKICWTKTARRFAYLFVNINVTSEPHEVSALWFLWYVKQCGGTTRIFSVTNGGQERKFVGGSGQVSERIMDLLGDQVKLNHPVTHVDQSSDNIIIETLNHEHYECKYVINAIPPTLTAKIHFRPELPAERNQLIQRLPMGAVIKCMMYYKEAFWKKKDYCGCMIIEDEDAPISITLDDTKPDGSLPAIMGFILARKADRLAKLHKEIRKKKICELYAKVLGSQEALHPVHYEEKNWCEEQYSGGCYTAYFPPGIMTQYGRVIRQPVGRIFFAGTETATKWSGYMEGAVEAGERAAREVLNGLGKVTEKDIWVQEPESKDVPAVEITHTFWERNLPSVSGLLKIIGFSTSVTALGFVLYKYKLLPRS

[2] = target: T2, Amine oxidase [flavin-containing] B (Homo sapiens, UniProt P27338); assay: Inhibition of recombinant human MAOB using p-tyramine as substrate assessed as H2O2 production preincubated for 15 mins followed by substrate addition by fluorometric analysis
T2 sequence (P27338 whole entry): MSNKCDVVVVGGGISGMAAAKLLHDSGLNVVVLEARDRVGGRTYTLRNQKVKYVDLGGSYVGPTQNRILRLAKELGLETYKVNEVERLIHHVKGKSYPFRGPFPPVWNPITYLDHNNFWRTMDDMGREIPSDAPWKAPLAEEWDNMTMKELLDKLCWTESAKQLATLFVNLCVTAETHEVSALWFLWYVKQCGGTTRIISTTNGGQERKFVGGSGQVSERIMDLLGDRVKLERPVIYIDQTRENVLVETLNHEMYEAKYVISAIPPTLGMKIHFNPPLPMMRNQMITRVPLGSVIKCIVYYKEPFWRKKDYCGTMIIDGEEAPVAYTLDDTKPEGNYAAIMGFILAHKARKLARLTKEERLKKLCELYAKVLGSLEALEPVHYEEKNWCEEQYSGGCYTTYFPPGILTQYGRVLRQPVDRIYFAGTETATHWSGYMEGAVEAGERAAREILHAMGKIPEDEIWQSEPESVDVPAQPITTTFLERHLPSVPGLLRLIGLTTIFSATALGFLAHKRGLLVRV

Homo sapiens [3] = species on record: Homo sapiens; assay: Selectivity ratio of IC50 for recombinant human MAOB to IC50 for recombinant human MAOA
Homo sapiens [4] = species on record: Homo sapiens; assay: Selectivity ratio of IC50 for recombinant human MAOA to IC50 for recombinant human MAOB
[5] = Toxicity in SPF Kuming mouse assessed as death at 500 to 1000 mg/kg, po measured up to 14 days; assay type: organism-based; conditions: in vivo

Q: For `CCOc1ccc2cc(C(=O)/C=C/c3c(/C=C/c4ccc(OC)cc4)cc(OC)cc3OC)c(=O)oc2c1`, which IC50 [1] is on record?
A: Its IC50 is 7.07 µM.

Q: And the IC50 [2]?
A: The IC50 was 48.1 µM.

Q: What about the Ratio IC50 (Homo sapiens [3]) of the same molecule?
A: Its Ratio IC50 is 6.8.

Q: And the Ratio IC50 (Homo sapiens [4])?
A: The Ratio IC50 was 0.15.

Q: Which results are given for `COc1ccc(/C=C/c2cc(OC)cc(OC)c2/C=C/C(=O)c2cc3cc(F)ccc3oc2=O)cc1`?
A: IC50 [1]: 44.3 µM; IC50 [2]: 10.2 µM; Ratio IC50 (Homo sapiens [3]): 0.23; Ratio IC50 (Homo sapiens [4]): 4.36

Q: Which results are given for `COc1ccc(/C=C/c2cc(OC)cc(OC)c2/C=C/C(=O)c2cc3cccc(Br)c3oc2=O)cc1`?
A: IC50 [1]: > 60 µM; IC50 [2]: > 60 µM

Q: Which IC50 [1] does the source give for `CCOc1cccc2cc(C(=O)/C=C/c3c(/C=C/c4ccc(OC)cc4)cc(OC)cc3OC)c(=O)oc12` here?
A: Its IC50 is 3.2 µM.

Q: And the IC50 [2]?
A: The IC50 was greater than 60 µM.

Q: And the Ratio IC50 (Homo sapiens [3])?
A: Its Ratio IC50 is greater than 18.8.

Q: What about the Ratio IC50 (Homo sapiens [4]) of the same molecule?
A: Its Ratio IC50 is less than 0.05.

Q: And the LD50 at 336 h [5]?
A: Its LD50 at 336 h is greater than 1000 mg/kg.

Q: Which results are given for `COc1ccc(/C=C/c2cc(OC)cc(OC)c2/C=C/C(=O)c2cc3cc(Cl)ccc3oc2=O)cc1`?
A: IC50 [1]: > 60 µM; IC50 [2]: > 60 µM

Q: With `COc1ccc(/C=C/c2cc(OC)cc(OC)c2/C=C/C(=O)c2cc3ccc(OC)cc3oc2=O)cc1` as the molecule, how does the IC50 [1] read?
A: Its IC50 is greater than 60 µM.

Q: What about the IC50 [2] of the same molecule?
A: Its IC50 is 4.2 µM.

Q: And the Ratio IC50 (Homo sapiens [3])?
A: The Ratio IC50 was less than 0.07.

Q: What about the Ratio IC50 (Homo sapiens [4]) of the same molecule?
A: The Ratio IC50 was greater than 14.3.

Q: With `COc1ccc(/C=C/c2cc(OC)cc(OC)c2/C=C/C(=O)c2cc3c(OC)cccc3oc2=O)cc1` as the molecule, how does the IC50 [1] read?
A: Its IC50 is greater than 60 µM.

Q: And the IC50 [2]?
A: The IC50 was 14.5 µM.

Q: What about the Ratio IC50 (Homo sapiens [3]) of the same molecule?
A: The Ratio IC50 was less than 0.24.

Q: And the Ratio IC50 (Homo sapiens [4])?
A: The Ratio IC50 was greater than 4.13.

Q: Which IC50 [1] does the source give for `COc1ccc(/C=C/c2cc(OC)cc(OC)c2/C=C/C(=O)c2cc3cc(C)ccc3oc2=O)cc1` here?
A: Its IC50 is 30.4 µM.

Q: And the IC50 [2]?
A: The IC50 was 5.09 µM.

Q: And the Ratio IC50 (Homo sapiens [3])?
A: Its Ratio IC50 is 0.17.

Q: What about the Ratio IC50 (Homo sapiens [4]) of the same molecule?
A: The Ratio IC50 was 5.97.

Q: For `COc1ccc(/C=C/c2cc(OC)cc(OC)c2/C=C/C(=O)c2cc3cccc(OC)c3oc2=O)cc1`, which IC50 [1] is on record?
A: The IC50 was greater than 60 µM.

Q: And the IC50 [2]?
A: The IC50 was 22.4 µM.

Q: And the Ratio IC50 (Homo sapiens [3])?
A: Its Ratio IC50 is less than 0.37.

Q: What about the Ratio IC50 (Homo sapiens [4]) of the same molecule?
A: The Ratio IC50 was greater than 2.68.

Q: For `COc1ccc(/C=C/c2cc(OC)cc(OC)c2/C=C/C(=O)c2cc3ccc(C)cc3oc2=O)cc1`, which IC50 [1] is on record?
A: Its IC50 is 58.2 µM.

Q: What about the IC50 [2] of the same molecule?
A: The IC50 was 2.78 µM.

Q: What about the Ratio IC50 (Homo sapiens [3]) of the same molecule?
A: Its Ratio IC50 is 0.05.

Q: And the Ratio IC50 (Homo sapiens [4])?
A: Its Ratio IC50 is 20.9.

Q: And the LD50 at 336 h [5]?
A: Its LD50 at 336 h is greater than 1000 mg/kg.

Q: For `COc1ccc(/C=C/c2cc(OC)cc(OC)c2/C=C/C(=O)c2cc3ccccc3oc2=O)cc1`, which IC50 [1] is on record?
A: The IC50 was 41.7 µM.

Q: What about the IC50 [2] of the same molecule?
A: Its IC50 is 9.17 µM.

Q: What about the Ratio IC50 (Homo sapiens [3]) of the same molecule?
A: The Ratio IC50 was 0.22.

Q: And the Ratio IC50 (Homo sapiens [4])?
A: The Ratio IC50 was 4.54.

Q: Which results are given for `COc1ccc(/C=C/c2cc(OC)cc(OC)c2/C=C/C(=O)c2cc3cccc(C)c3oc2=O)cc1`?
A: IC50 [1]: > 60 µM; IC50 [2]: 20 µM; Ratio IC50 (Homo sapiens [3]): < 0.33; Ratio IC50 (Homo sapiens [4]): > 3

Q: Which IC50 [1] does the source give for `COc1ccc(/C=C/c2cc(OC)cc(OC)c2/C=C/C(=O)c2cc3cc(Br)cc(OC)c3oc2=O)cc1` here?
A: The IC50 was greater than 60 µM.

Q: What about the IC50 [2] of the same molecule?
A: The IC50 was greater than 60 µM.

Q: With `C=CCc1cc(OC)c2oc(=O)c(C(=O)/C=C/c3c(/C=C/c4ccc(OC)cc4)cc(OC)cc3OC)cc2c1` as the molecule, how does the IC50 [1] read?
A: The IC50 was 5.3 µM.

Q: And the IC50 [2]?
A: Its IC50 is 50.5 µM.

Q: What about the Ratio IC50 (Homo sapiens [3]) of the same molecule?
A: Its Ratio IC50 is 9.53.

Q: And the Ratio IC50 (Homo sapiens [4])?
A: Its Ratio IC50 is 0.1.

Q: Which IC50 [2] does the source give for `COc1ccc(/C=C/c2cc(OC)cc(OC)c2/C=C/C(=O)c2cc3ccc(N(C)C)cc3oc2=O)cc1` here?
A: The IC50 was greater than 60 µM.

Q: Which IC50 [1] does the source give for `COc1ccc(/C=C/c2cc(OC)cc(OC)c2/C=C/C(=O)c2cc3cc(Br)ccc3oc2=O)cc1` here?
A: The IC50 was 12.1 µM.

Q: What about the IC50 [2] of the same molecule?
A: Its IC50 is greater than 60 µM.

Q: What about the Ratio IC50 (Homo sapiens [3]) of the same molecule?
A: The Ratio IC50 was greater than 4.95.

Q: What about the Ratio IC50 (Homo sapiens [4]) of the same molecule?
A: The Ratio IC50 was less than 0.2.

Q: Which results are given for `COc1ccc(/C=C/c2cc(OC)cc(OC)c2/C=C/C(=O)c2cc3cc(OC)ccc3oc2=O)cc1`?
A: IC50 [1]: > 60 µM; IC50 [2]: > 60 µM

Q: For `COc1ccc(/C=C/c2cc(OC)cc(OC)c2/C=C/C(=O)c2cc3ccc(Br)cc3oc2=O)cc1`, which IC50 [1] is on record?
A: The IC50 was 3.01 µM.

Q: What about the IC50 [2] of the same molecule?
A: The IC50 was 55.3 µM.

Q: What about the Ratio IC50 (Homo sapiens [3]) of the same molecule?
A: Its Ratio IC50 is 18.4.

Q: And the Ratio IC50 (Homo sapiens [4])?
A: Its Ratio IC50 is 0.05.

Q: For `COc1ccc(/C=C/c2cc(OC)cc(OC)c2/C=C/C(=O)c2cc3ccc(Cl)cc3oc2=O)cc1`, which IC50 [1] is on record?
A: Its IC50 is greater than 60 µM.

Q: What about the IC50 [2] of the same molecule?
A: The IC50 was 7.36 µM.

Q: And the Ratio IC50 (Homo sapiens [3])?
A: Its Ratio IC50 is less than 0.12.

Q: What about the Ratio IC50 (Homo sapiens [4]) of the same molecule?
A: The Ratio IC50 was greater than 8.15.

Q: Which results are given for `COc1ccc(/C=C/c2cc(OC)cc(OC)c2/C=C/C(=O)c2cc3c(OC)cc(OC)cc3oc2=O)cc1`?
A: IC50 [1]: 21.2 µM; IC50 [2]: 35.5 µM; Ratio IC50 (Homo sapiens [3]): 1.67; Ratio IC50 (Homo sapiens [4]): 0.6
